In patent US11878972B2, “Treatment of neurological disorders” (TORQUR AG, priority 2016, dated 2024):

Columns and labels:
in vivo = conditions: B57BL/6J, mouse
Description: 8, 50 mg/kg was administered to B57BL/6J mice by gavage. Animals were housed in temperature controlled rooms with free access to food and water. Test items were weighed in a glass vial and dissolved first in DMSO. Tween 80 was added subsequently and finally, the formulation was completed with HPβCD 20%. […] Blood was collected in tubes containing K3-EDTA and stored on ice until centrifugation at 3000×g (10 min. 4° C.). The plasma supernatant was separated and kept at −20° C. until being assayed. Thigh muscle and brain of mice were snap frozen. The brain and muscle samples were homogenized in PBS using the Precellys 24/Dual homogeniser.
Samples were analyzed by LC-MS. Calibration standards were prepared by spiking 20 μl of drug free blank plasma with calibration solution. […] Samples were vigorously shaken and centrifuged for 10 minutes at 6000 g and 20° C. […] An aliquot was transferred to 200 μl sampler vials and subsequently subjected to LC-MS with an injection volume of 1.5 μl.

[1] = test system: LC3-II in STHdh^Q7/Q7 and STHdh^Q111/Q111 cells; assay: Induction of autophagy in STHdh cells (LC3-II, western blot); format: cell-based, mouse; conditions: striatal cells, 4 hours, presence and absence of Bafilomycin A
Description: In order to test whether Cpd. 3 and Cpd. 8 inhibit mTOR signaling and induce autophagy in neuronal cell models of HD, treatment of STHdh^Q111/Q111 and STHdh^Q7/Q7 cells was employed. […] Cells were seeded in 10 cm dishes. When cells were about 80% confluent, cells were differentiated and treated with compounds at the same time. Cells were treated with Cpd. 3 (200 nM, 400 nM, 1230 nM), Cpd. […] At the end of incubation time cells were washed with cold PBS buffer and lysed with 200 μl of RIPA buffer supplemented with 4% Complete protease inhibitor (Roche, Switzerland) and 10% PhosStop (Roche, Switzerland). After 30 min of incubation on ice, lysates were vortexed, centrifuged (20 min, 4° C., 16000 rpm) and supernatants were collected. Protein concentration was determined as described above. 30 μg of protein per sample was analyzed by western blot as described above using the following primary antibodies:
In order to detect levels of LC3-II, an autophagy marker in autophagosomes, cell treatment was performed in the presence and absence of Bafilomycin A, an inhibitor of autophagosome degradation. Thus compounds lead to accumulation of LC3-II levels when autophagy is induced. Cpd. 3 (FIG. 6C) and Cpd. […] For Cpd. […] Cpd.

[2] = test system: 51Q-HTT-Exon1-eGFP transfected HEK cells; assay: Filter trap assay of mutHTT aggregates; format: cell-based, human; conditions: 8 hours; Cpd. 3 400, 1230 nM; Cpd. 8 130, 1230 nM; INK128 100 nM; Rapamycin 400 nM
Description: HEK cells were transiently transfected with pcDNA3.1/V5-His vector from Clontech (Mountain View, USA) containing the expression sequence for Exon1 of HTT with a 19Q (no aggregation) or 51Q extension and enhanced green fluorescence protein (eGFP) tag using Attractene Transfection Reagent (Qiagen, Netherlands). 1×10^6 cells were seeded in a 6 well plate. On the next day 2 μg DNA were mixed with 95.5 μl transfection media and 4.5 μl transfection reagent. After an incubation time of 15 min the mixture was added to the cells. After 72 hours cells were harvested or fixed for analysis.
HEK cells transfected with 19Q- or 51Q-HTT-Exon1-eGFP were treated with DMSO control. 51Q-HTT-Exon I-eGFP HEK cells form aggregates. These cells were treated with Cpd. 3 (400, 1230 nM), Cpd. […] After 30 min incubation on ice, cells were homogenized (Dounce Homogenizer, Thermo Fisher, USA). 50 μg of protein solution in PBS was supplemented with 2% SDS (Roth, Germany). Samples were sucked through a nitrocellulose membrane (0.45 μm) and washed twice with PBS buffer.

[3] = test system: autophagic markers LC3II and p62; assay: Induction of autophagy in brain of mice (western blot LC3, p62); format: in vivo, mouse; conditions: single oral administration 50 mg/kg
Description: In order to investigate whether mTOR inhibition by Cpd. 3 and Cpd. 8 induces autophagy—the essential mechanism for huntingtin aggregate clearance-in the brain, BALB/c nude mice were treated with Cpd. 3 and Cpd. 8 as described in sample 5.

## Nc1cc(C(F)F)c(-c2nc(N3C4CCC3COC4)nc(N3C4CCC3COC4)n2)cn1 [Compound 3, 5-(4-(3-oxa-8-azabicyclo[3.2.1]octan-8-yl)-6-(3-oxa-8-azabicyclo[3.2.1]octan-8-yl)-1,3,5-triazin-2-yl)-4-(difluoromethyl)pyridin-2-amine]
In vivo; half-life
  half-life: 5 h
In vivo; po, 50 mg/kg
  AUC: 20500 ng·h/mL
  Tmax: 0.5 h
In vivo; po, 50 mg/kg, Brain t1/2
  half-life: 5 h
In vivo; po, 50 mg/kg, Plasma t1/2
  half-life: 5.3 h
In vivo; po, 50 mg/kg, half-life in mice (estimated)
  half-life: 4.7 to 4.8 h
[1]
  autophagy (LC3-II levels): induced autophagy in striatal cells
[2]
  mutHTT aggregates (filter trap): significant reduction of cytotoxic mutHTT aggregates
[3]
  autophagic marker LC3II in brain: time-dependent increase
  autophagic marker p62 in brain: decrease
